Literature values, collected in US9427419B2, “Compositions comprising dimethyl sulfoxide (DMSO)” (Abela Pharmaceuticals, Inc., priority 2005, dated 2016).

Experiments:
[1] = doses of 250 mg/Kg
[2] = higher doses, from 15 to 30 grams daily
[3] = system: asymmetric dimethylarginine (ADMA); settings: continuous intravenous infusion for 120 minutes at 0.125 g/min, angina pectoris
[4] = system: cerebral blood flow, contused brain; settings: mice, after experimental traumatic injury
[5] = after oral administration
endothelin-1 = settings: continuous intravenous infusion for 120 minutes at 0.125 g/min, angina pectoris
cerebral blood flow = settings: variety of brain injuries including stroke and head trauma, animals and humans

## NCCCC[C@H](N)C(=O)O [L-lysine]
[1]
  adverse effects: without adverse effects

## N=C(N)NCCC[C@H](N)C(=O)O [L-arginine]
[2]
  most common adverse reactions: nausea, abdominal cramps and diarrhea
[3]
  serum levels of asymmetric dimethylarginine (ADMA): lowered the serum levels of asymmetric dimethylarginine (ADMA)
[4]
  cerebral blood flow (CBF) post-injury: increased CBF post-injury
  contusion volume: reduction in contusion volume
[5]
  time of peak plasma levels: 1 to 2 h
endothelin-1
  levels of endothelin-1: reduce the levels of endothelin-1

## C[S+](C)[O-] [DMSO, dimethyl sulfoxide]
Cerebral blood flow
  cerebral blood flow (CBF): increase CBF
Hippocampal neurons
  excitotoxic death of the neurons induced by glutamate: can prevent excitotoxic death
Hippocampal neurons; DMSO concentrations 0.5-[…]
  glutamate responses in hippocampal neurons: inhibit glutamate responses
Hippocampal neurons; rapidly reversible manner
  electrophysiological responses and calcium influx induced by glutamate, NMDA and AMPA: suppresses

## N[C@@H](CC(=O)O)C(=O)O [L-aspartate]
[1]
  adverse effects: without adverse effects
